Data set [1] can be described thus: refractive index (Na D-line) (dimensionless). Conditions: 298.15 K; 101.33 kPa; Liquid; Standard Abbe refractometry.
For data set [2] the following is noted: 298.15 K; 101.33 kPa; Liquid; Vibrating tube method.

Each structure is given as a SMILES string. ± gives the expanded uncertainty stated by the source.

As usually defined, the refractive index is the speed of light in vacuum divided by its phase velocity in the sample. One may read the mass density as the mass of a sample divided by its volume.

Turning to `CC(=O)OC(C)C` [1-methylethyl ethanoate], the refractive index in data set [1] was found to be 1.3701 ± 0.012. In data set [2], the mass density is given as 867.6 ± 16 kg/m3. In the case of `O` [water], the refractive index in data set [1] was 1.3325 ± 0.012.

In the case of `CC(C)O` [propan-2-ol], in data set [1], the refractive index came to 1.375 ± 0.012. The mass density in data set [2] came to 781.4 ± 16 kg/m3.

Source of the values: the NIST ThermoML archive (doi:10.1021/acs.jced.8b00844).
